From patent publication US11547663B2, “Unit aerosol doses for anticoagulation” (InCarda Therapeutics, Inc., priority 2015, dated 2023)
Where two headings read alike, the source gives them in different places.

Key:
intrinsic system = test: Activated Partial Thromboplastin Time (aPTT or PTT) in dog blood after IV or IT anticoagulant; type: in vivo; details: for PTTCS: Coronary Sinus; for PTT LA: Left Atrium
Method: (§1) To assess the efficacy of anticoagulants delivered via intratracheal (IT) inhalation, four different anticoagulants were tested in a dog study.
(§2) PK as well as biomarkers of blood in the Left Atrium (LA) and Coronary Sinus (CS) were monitored. These locations were chosen as these are the sites whereby clot formation occurs that leads to Myocardial Infarction or results in stroke.
(§3) These drugs and doses were selected to represent a wide spectrum of anticoagulant classes. One anticoagulant was tested in one dog on each arm of this study.
(§4) Factor Xa inhibition; Prothrombin Time (PT): measures the integrity of the extrinsic system as well as factors common to both systems; and Activated Partial Thromboplastin Time (aPTT or PTT): measures the integrity of the intrinsic system and the common components and factor-Xa inhibition.
(§5) Measurements were performed in the blood collected from Left Atrium (LA) and in the Coronary sinus (CS)—the targets for stroke prevention and Myocardial Infarction (MI), respectively.

[1] = Dog study summary: effect of inhaled anticoagulant on tested biomarkers; type: in vivo; details: inhaled (IT)
Method: as §1, §2, §3
The standard laboratory tests commonly used to evaluate the efficacy of anticoagulants are the following:
The first test, ACT, was the key in the management of ACS. The latter three tests provided information regarding the prevention of clot formation and growth of an existing clot. The table below summarizes the measurements performed for each anticoagulant in the study.

intrinsic pathway = test: Activated clotting time (ACT) in dog blood after IV or IT anticoagulant; type: in vivo; details: for ACT LA: Left Atrium
Method: To assess the efficacy of anticoagulants delivered via intratracheal (IT) inhalation, four different anticoagulants were tested in a dog study. PK as well as biomarkers of blood in the Left Atrium (LA) and Coronary Sinus (CS) were monitored. These locations were chosen as these are the sites whereby clot formation occurs that leads to Myocardial Infarction or results in stroke. These drugs and doses were selected to represent a wide spectrum of anticoagulant classes. One anticoagulant was tested in one dog on each arm of this study. Activated clotting time (ACT), measures the time in seconds needed for whole blood to clot upon exposure to an activator of an intrinsic pathway by the addition of such as factor XII activators. Measurements were performed in the blood collected from Left Atrium (LA) and in the Coronary sinus (CS)—the targets for stroke prevention and Myocardial Infarction (MI), respectively.

extrinsic system = test: Prothrombin Time (PT) in dog blood after IV or IT anticoagulant; type: in vivo; details: for PTCS: Coronary Sinus; for PT LA: Left Atrium
Method: as §1, §2, §3, §4, §5

[2] = cited from earlier work
[3] = IT Bivalirudin 2 mg/kg, 0 min (baseline)
[4] = IT Bivalirudin 8 mg/kg, 0 min (baseline)
[5] = IV Bivalirudin 2 mg/kg, 0 min (baseline)

With Bivalirudin the “effect on aPTT” value (intrinsic system; IT (inhaled)) was “NO effect”, the “PTTCS” value (intrinsic system; [3]) was 8.4 s and the “PTTCS” value (intrinsic system; IT Bivalirudin 2 mg/kg, 3 min) was 120 s. The “PTTCS” value (intrinsic system; IT Bivalirudin 2 mg/kg, 15 min) was 120 s, the “PTTCS” value (intrinsic system; IT Bivalirudin 2 mg/kg, 60 min) was 10.7 s and the “PTT LA” value (intrinsic system; [3]) was 8.4 s. The “PTT LA” value (intrinsic system; IT Bivalirudin 2 mg/kg, 1 min) was 8.3 s, the “PTT LA” value (intrinsic system; IT Bivalirudin 2 mg/kg, 3 min) was 9.1 s and the “PTT LA” value (intrinsic system; IT Bivalirudin 2 mg/kg, 5 min) was 8.8 s. The “PTT LA” value (intrinsic system; IT Bivalirudin 2 mg/kg, 10 min) was 11.5 s, the “PTT LA” value (intrinsic system; IT Bivalirudin 2 mg/kg, 15 min) was 9.4 s and the “PTT LA” value (intrinsic system; IT Bivalirudin 2 mg/kg, 30 min) was 8.2 s. For the same substance, the “PTT LA” value (intrinsic system; IT Bivalirudin 2 mg/kg, 60 min) was 11.9 s, the “PTTCS” value (intrinsic system; [4]) was 12.5 s and the “PTTCS” value (intrinsic system; IT Bivalirudin 8 mg/kg, 3 min) was 8.1 s. The “PTTCS” value (intrinsic system; IT Bivalirudin 8 mg/kg, 15 min) was 120 s, the “PTTCS” value (intrinsic system; IT Bivalirudin 8 mg/kg, 60 min) was 21.3 s and the “PTT LA” value (intrinsic system; [4]) was 10.3 s. For the same substance, the “PTT LA” value (intrinsic system; IT Bivalirudin 8 mg/kg, 1 min) was 8.4 s, the “PTT LA” value (intrinsic system; IT Bivalirudin 8 mg/kg, 3 min) was 11.9 s and the “PTT LA” value (intrinsic system; IT Bivalirudin 8 mg/kg, 5 min) was 11.3 s. For the same substance, the “PTT LA” value (intrinsic system; IT Bivalirudin 8 mg/kg, 10 min) was 9.5 s, the “PTT LA” value (intrinsic system; IT Bivalirudin 8 mg/kg, 15 min) was 9.6 s and the “PTT LA” value (intrinsic system; IT Bivalirudin 8 mg/kg, 30 min) was 9.9 s. The “PTT LA” value (intrinsic system; IT Bivalirudin 8 mg/kg, 60 min) was 13 s, the “effect on aPTT” value (intrinsic system; IV) was “prolonged” and the “PTTCS” value (intrinsic system; [5]) was 10.6 s. For the same substance, the “PTTCS” value (intrinsic system; IV Bivalirudin 2 mg/kg, 3 min) was 35.1 s, the “PTTCS” value (intrinsic system; IV Bivalirudin 2 mg/kg, 15 min) was 120 s and the “PTTCS” value (intrinsic system; IV Bivalirudin 2 mg/kg, 60 min) was 120 s. The “PTT LA” value (intrinsic system; [5]) was 9.7 s, the “PTT LA” value (intrinsic system; IV Bivalirudin 2 mg/kg, 1 min) was 42.4 s and the “PTT LA” value (intrinsic system; IV Bivalirudin 2 mg/kg, 3 min) was 36 s. For the same substance, the “PTT LA” value (intrinsic system; IV Bivalirudin 2 mg/kg, 5 min) was 26.3 s, the “PTT LA” value (intrinsic system; IV Bivalirudin 2 mg/kg, 10 min) was 23.8 s and the “PTT LA” value (intrinsic system; IV Bivalirudin 2 mg/kg, 15 min) was 19.1 s. For the same substance, the “PTT LA” value (intrinsic system; IV Bivalirudin 2 mg/kg, 30 min) was 15.7 s, the “PTT LA” value (intrinsic system; IV Bivalirudin 2 mg/kg, 60 min) was 11 s and the “effect of inhaled drug on tested biomarkers (summary)” value [1] was “showed NO”. For the same substance, the “effect on ACT” value (intrinsic pathway; IT (inhaled)) was “NO effect”, the “effect on ACT” value (intrinsic pathway; IT (inhaled), listed as bivalirudin) was “no prolongation” and the “ACT LA” value (intrinsic pathway; [3]) was 90 s. For the same substance, the “ACT LA” value (intrinsic pathway; IT Bivalirudin 2 mg/kg, 1 min) was 95 s, the “ACT LA” value (intrinsic pathway; IT Bivalirudin 2 mg/kg, 3 min) was 95 s and the “ACT LA” value (intrinsic pathway; IT Bivalirudin 2 mg/kg, 5 min) was 101 s. The “ACT LA” value (intrinsic pathway; IT Bivalirudin 2 mg/kg, 10 min) was 101 s, the “ACT LA” value (intrinsic pathway; IT Bivalirudin 2 mg/kg, 15 min) was 95 s and the “ACT LA” value (intrinsic pathway; IT Bivalirudin 2 mg/kg, 30 min) was 95 s. For the same substance, the “ACT LA” value (intrinsic pathway; IT Bivalirudin 2 mg/kg, 60 min) was 95 s, the “ACT LA” value (intrinsic pathway; [4]) was 78 s and the “ACT LA” value (intrinsic pathway; IT Bivalirudin 8 mg/kg, 1 min) was 95 s. The “ACT LA” value (intrinsic pathway; IT Bivalirudin 8 mg/kg, 3 min) was 89 s, the “ACT LA” value (intrinsic pathway; IT Bivalirudin 8 mg/kg, 5 min) was 90 s and the “ACT LA” value (intrinsic pathway; IT Bivalirudin 8 mg/kg, 10 min) was 89 s. For the same substance, the “ACT LA” value (intrinsic pathway; IT Bivalirudin 8 mg/kg, 15 min) was 90 s, the “ACT LA” value (intrinsic pathway; IT Bivalirudin 8 mg/kg, 30 min) was 90 s and the “ACT LA” value (intrinsic pathway; IT Bivalirudin 8 mg/kg, 60 min) was 89 s. The “effect on ACT” value (intrinsic pathway; IV) was “prolonged”, the “ACT LA” value (intrinsic pathway; [5]) was 106 s and the “ACT LA” value (intrinsic pathway; IV Bivalirudin 2 mg/kg, 1 min) was 242 s. The “ACT LA” value (intrinsic pathway; IV Bivalirudin 2 mg/kg, 3 min) was 214 s, the “ACT LA” value (intrinsic pathway; IV Bivalirudin 2 mg/kg, 5 min) was 203 s and the “ACT LA” value (intrinsic pathway; IV Bivalirudin 2 mg/kg, 10 min) was 174 s. The “ACT LA” value (intrinsic pathway; IV Bivalirudin 2 mg/kg, 15 min) was 168 s, the “ACT LA” value (intrinsic pathway; IV Bivalirudin 2 mg/kg, 30 min) was 135 s and the “ACT LA” value (intrinsic pathway; IV Bivalirudin 2 mg/kg, 60 min) was 106 s. For the same substance, the “effect on PT” value (extrinsic system; IT (inhaled)) was “NO effect”, the “PTCS” value (extrinsic system; [3]) was 6.75 s and the “PTCS” value (extrinsic system; IT Bivalirudin 2 mg/kg, 3 min) was 5.45 s. For the same substance, the “PTCS” value (extrinsic system; IT Bivalirudin 2 mg/kg, 15 min) was 9.3 s, the “PTCS” value (extrinsic system; IT Bivalirudin 2 mg/kg, 60 min) was 6.3 s and the “PT LA” value (extrinsic system; [3]) was 6.1 s. For the same substance, the “PT LA” value (extrinsic system; IT Bivalirudin 2 mg/kg, 1 min) was 6 s, the “PT LA” value (extrinsic system; IT Bivalirudin 2 mg/kg, 3 min) was 5.4 s and the “PT LA” value (extrinsic system; IT Bivalirudin 2 mg/kg, 5 min) was 5.8 s. For the same substance, the “PT LA” value (extrinsic system; IT Bivalirudin 2 mg/kg, 10 min) was 6.2 s, the “PT LA” value (extrinsic system; IT Bivalirudin 2 mg/kg, 15 min) was 5.7 s and the “PT LA” value (extrinsic system; IT Bivalirudin 2 mg/kg, 30 min) was 5.8 s. The “PT LA” value (extrinsic system; IT Bivalirudin 2 mg/kg, 60 min) was 7.2 s, the “PTCS” value (extrinsic system; [4]) was 6.5 s and the “PTCS” value (extrinsic system; IT Bivalirudin 8 mg/kg, 3 min) was 5.5 s. The “PTCS” value (extrinsic system; IT Bivalirudin 8 mg/kg, 15 min) was 7 s, the “PTCS” value (extrinsic system; IT Bivalirudin 8 mg/kg, 60 min) was 5.5 s and the “PT LA” value (extrinsic system; [4]) was 6.4 s. The “PT LA” value (extrinsic system; IT Bivalirudin 8 mg/kg, 1 min) was 6.1 s, the “PT LA” value (extrinsic system; IT Bivalirudin 8 mg/kg, 3 min) was 6.9 s and the “PT LA” value (extrinsic system; IT Bivalirudin 8 mg/kg, 5 min) was 6.3 s. For the same substance, the “PT LA” value (extrinsic system; IT Bivalirudin 8 mg/kg, 10 min) was 7 s, the “PT LA” value (extrinsic system; IT Bivalirudin 8 mg/kg, 15 min) was 6.7 s and the “PT LA” value (extrinsic system; IT Bivalirudin 8 mg/kg, 30 min) was 6.6 s. For the same substance, the “PT LA” value (extrinsic system; IT Bivalirudin 8 mg/kg, 60 min) was 5.9 s, the “effect on PT” value (extrinsic system; IV) was “prolonged” and the “PTCS” value (extrinsic system; [5]) was 5.8 s. The “PTCS” value (extrinsic system; IV Bivalirudin 2 mg/kg, 3 min) was 25 s, the “PTCS” value (extrinsic system; IV Bivalirudin 2 mg/kg, 15 min) was 17.2 s and the “PTCS” value (extrinsic system; IV Bivalirudin 2 mg/kg, 60 min) was 6 s. The “PT LA” value (extrinsic system; [5]) was 5.8 s, the “PT LA” value (extrinsic system; IV Bivalirudin 2 mg/kg, 1 min) was 34.6 s and the “PT LA” value (extrinsic system; IV Bivalirudin 2 mg/kg, 3 min) was 28.8 s. The “PT LA” value (extrinsic system; IV Bivalirudin 2 mg/kg, 5 min) was 20.8 s, the “PT LA” value (extrinsic system; IV Bivalirudin 2 mg/kg, 10 min) was 17.4 s and the “PT LA” value (extrinsic system; IV Bivalirudin 2 mg/kg, 15 min) was 12.1 s. For the same substance, the “PT LA” value (extrinsic system; IV Bivalirudin 2 mg/kg, 30 min) was 7.6 s, the “PT LA” value (extrinsic system; IV Bivalirudin 2 mg/kg, 60 min) was 6.4 s and the half-life ([2]; as stated in b199) was 1 to 2 h. The half-life ([2]; as stated in b211) was 2 to 4 h.
